Here are results for 7 compounds from publication PMC10766610, “DCAF1-based PROTACs with activity against clinically validated targets overcoming intrinsic- and acquired-degrader resistance” (Nature Communications, 2024).

Where two headings read alike, the source gives them in different places.

Series [1] has as its target BTK (Homo sapiens, UniProt Q06187). Kind of series: BTK-GFP degradation by flow cytometry in TMD8 BTK-GFP/mCh cells. To be noted: TMD8 BTK-GFP/mCh, 24 h; for DC50: read-out: DC50 BTK-Degradation. The format is cell-based. On the set-up: performed with full-length BTK and endogenous DCAF1; expressed in transfected cells; host or cells: TMD8 cells, lentiviral, blasticidin-selected (TMD8 BTK-GFP/mCh). On the procedure:
The bicistronic pLenti6 BTK-GFP-chysel-mCHERRY expression vector was cloned as described[92] using Gateway cloning with a pENTR-BTK plasmid lacking a STOP codon. TMD8 cells were then infected with lentiviral particles from this vector as described above and stably transfected cells were selected with blasticidin at a concentration of 10 μg/mL referred to as TMD8 BTK-GFP/mCh cells.
(§1) For flow cytometry measurements, 25,000 exponentially growing TMD8 BTK-GFP/mCh cells were plated in 100 μL of each well of a 96-well plate and grown for 24 h. Cells were then dosed with corresponding compounds and doses from 10 mM DMSO stock for 24 h, after which GFP and mCherry fluorescence was read with a Beckmann Coulter Cytoflex. For competition experiment, both compounds were added at the same time and dosed for 24 h. Cells were gated based on Forward & Side Scatter and selection for Single cells using SSC-A vs. SSC-H. Further, the population of viable cells was defined by the forward & side-scatter characteristics of DMSO-treated cells. To confirm cells outside of this population as non-viable, cells were plated and treated for 24 h, washed with PBS and stained for 30 min with two markers of early (Annexin-V) and late (LIVE/DEAD) apoptosis. Effects on viability were measured by the reduction of the percentage of cells included in this viable-population gate with increasing doses of compound tested. Degradation of BTK was calculated based on subtracting background (BG) fluorescence of parental TMD8 signal via (GFP-BG)/(mCherry-BG) of viable cells. Median ratios of three technical (different wells) replicates were used to calculate daily averages. Each compound dose–response was generated via three biological replicates (different days of experiment). Degradation curve parameters (DC50 & Abs. DC50 & max. Deg) were extracted using GraphPad Prism’s 4-parameter logistic curve fitting.

Series [2] can be described thus: Viability by FSC/SSC gate (flow cytometry) in TMD8 BTK-GFP/mCh cells. The conditions noted are these: human, TMD8 BTK-GFP/mCh cells, TMD8 BTK-GFP/mCh, 24 h. The format is cell-based, human. On the set-up: Max dose w/ Gating Viability >25%: unit: µM. The protocol:
as §1, with “To confirm cells outside of this population as non-viable, cells were plated and treated for 24 h, washed with PBS and stained for 30 min with two markers of early (Annexin-V) and late (LIVE/DEAD) apoptosis.” left out
(§2) The viability window was determined by measuring the GI50 of viability based on the percentage of cells included in the viable gate and comparing it to the DC50 of degradation. The fold-change difference describing this window is [GI50 Viability / DC50 Degradation], where values above 1 indicate a positive (lower DC50 degradation than AC50 viability) window.

Series [3] has as its system TMD8 BTK-GFP/mCh cells. The description is as above. The series is classed as cell-based, human. On the set-up: Max dose w/ Gating Viability >25%: unit: µM. The conditions noted are these: TMD8 BTK-GFP/mCh, 24 h. The protocol: as §1, with “To confirm cells outside of this population as non-viable, cells were plated and treated for 24 h, washed with PBS and stained for 30 min with two markers of early (Annexin-V) and late (LIVE/DEAD) apoptosis.” left out
as §2

The target of series [4] is T1, DCAF1(WDR) (Homo sapiens, UniProt Q9Y4B6, E1398S).
T1 construct: His6 (C); made in house; host or cells: Sf9 insect cells (baculovirus), co-expressed with BirA
T1 sequence (Q9Y4B6 1073-1399 E1398S): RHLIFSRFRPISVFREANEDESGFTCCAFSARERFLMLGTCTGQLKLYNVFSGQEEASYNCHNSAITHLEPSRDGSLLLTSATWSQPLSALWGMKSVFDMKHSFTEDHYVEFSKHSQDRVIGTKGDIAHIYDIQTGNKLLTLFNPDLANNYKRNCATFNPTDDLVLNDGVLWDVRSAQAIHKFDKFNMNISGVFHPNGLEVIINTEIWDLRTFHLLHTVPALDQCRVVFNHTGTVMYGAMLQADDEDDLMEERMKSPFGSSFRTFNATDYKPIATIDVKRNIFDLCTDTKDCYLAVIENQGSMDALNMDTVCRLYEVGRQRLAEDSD
Kind of series: DCAF1 TR-FRET competition assay, standard binary format. The format is binding. To be noted: for IC50: binary. The protocol:
Competition assay conditions consist of 20 µL total volume in white 384-well plates (Greiner), in 30 mM phosphate buffer pH 7.4 containing 140 mM NaCl, 0.01% Tween20, 1 mM TCEP and 1% final DMSO. Tested compounds at 14 different concentrations were pre-incubated at 22 °C for 30 min with a large excess of 10 µM human BTK (G389-S659) or 10 µM human BRD9-BD(130-250) in the cooperative assay or with buffer in standard binary assay. […] Samples were then incubated at 22 °C for 30 min before reading using a Tecan infinite M-1000 or PheraStar FSX (excitation 340 nm, emission 490 and 520 nm). DCAF1 protein was omitted in the negative control. IC50 fitting was carried out using an in-house developed software (Novartis Helios software application, unpublished, a publicly available alternative would be e.g., Graphpad Prism) using the methods described by Fomenko et al.[93] (regression algorithms for nonlinear dose-response curve fitting). Following normalization of activity values for the wells to % inhibition (% inhibition = [(high control-sample)/(high control-low control)] × 100). Data analysis could also be carried out using GraphPad Prism without prior normalization. The reported IC50 values are the average of at least two independent experiments.
For orientation: TR-FRET usually uses a lanthanide donor and a delayed reading to cut background.

The target in series [5] is T1, DCAF1(WDR). Kind of series: SPR, surface immobilized DCAF1(WDR), binary compound binding. The conditions noted are these: for Kd: binary, compound alone, spread in brackets, read-out: SPR KD.
Series [6] addresses T2, BRD7 (Homo sapiens, UniProt Q9NPI1).
T2 sequence (Q9NPI1 1-651): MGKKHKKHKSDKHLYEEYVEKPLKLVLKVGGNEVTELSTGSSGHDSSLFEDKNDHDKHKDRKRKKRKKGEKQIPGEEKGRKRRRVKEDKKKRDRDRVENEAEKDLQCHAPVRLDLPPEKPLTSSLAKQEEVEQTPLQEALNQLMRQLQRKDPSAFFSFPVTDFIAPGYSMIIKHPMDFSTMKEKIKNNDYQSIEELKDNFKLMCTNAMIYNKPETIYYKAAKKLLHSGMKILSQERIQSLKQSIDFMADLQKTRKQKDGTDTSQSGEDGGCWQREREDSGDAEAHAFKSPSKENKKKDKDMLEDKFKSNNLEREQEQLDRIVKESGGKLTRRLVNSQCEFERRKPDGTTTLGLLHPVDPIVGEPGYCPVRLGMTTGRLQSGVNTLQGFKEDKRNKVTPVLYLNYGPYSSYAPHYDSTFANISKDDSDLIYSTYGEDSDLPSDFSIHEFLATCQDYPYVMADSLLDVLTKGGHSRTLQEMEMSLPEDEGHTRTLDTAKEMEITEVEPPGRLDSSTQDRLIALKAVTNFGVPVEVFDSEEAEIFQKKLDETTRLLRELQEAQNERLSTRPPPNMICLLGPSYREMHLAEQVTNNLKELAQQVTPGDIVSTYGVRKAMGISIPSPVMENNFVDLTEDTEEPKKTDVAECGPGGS
The experiment in a line: BRD7-HiBiT protein abundance luminescence assay in HEK293 cells. The conditions noted are these: read-out: rel. DC50 (BRD7), 2 h.
Description: HEK293/BRD9-HiBiT pools (PROMEGA # CS3023120) and HEK293/BRD7-HiBiT pools (PROMEGA # CS3023124) were purchased from Promega. We performed clonal selection for HEK293/BRD9-HiBiT cell line using single-cell sorting and screening for HiBiT expression using Nano-Glo HiBiT Lytic Detection System (Promega # N3030). The HEK293/BRD9-HiBiT clone and HEK293/BRD7-HiBiT pool to perform standard HiBiT assays.

Series [7] concerns the target T3, BRD9 (Homo sapiens, UniProt Q9H8M2).
T3 sequence (Q9H8M2 1-597): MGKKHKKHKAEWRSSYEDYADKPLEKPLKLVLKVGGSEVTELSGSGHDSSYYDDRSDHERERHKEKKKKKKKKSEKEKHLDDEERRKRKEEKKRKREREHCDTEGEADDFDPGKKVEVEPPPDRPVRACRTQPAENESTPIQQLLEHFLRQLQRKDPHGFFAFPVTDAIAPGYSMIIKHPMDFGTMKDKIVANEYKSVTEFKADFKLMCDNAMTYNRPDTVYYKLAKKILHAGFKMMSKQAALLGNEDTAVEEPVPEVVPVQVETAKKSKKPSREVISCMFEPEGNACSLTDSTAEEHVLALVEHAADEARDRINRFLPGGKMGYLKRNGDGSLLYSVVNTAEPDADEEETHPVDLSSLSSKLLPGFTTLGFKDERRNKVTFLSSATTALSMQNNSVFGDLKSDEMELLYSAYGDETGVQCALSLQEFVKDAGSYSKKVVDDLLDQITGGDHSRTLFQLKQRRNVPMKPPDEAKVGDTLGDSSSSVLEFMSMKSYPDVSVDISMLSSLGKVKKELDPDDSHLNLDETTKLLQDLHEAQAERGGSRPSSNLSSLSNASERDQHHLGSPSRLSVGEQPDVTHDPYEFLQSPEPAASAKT
Kind of series: Rescue of DBr-1 mediated BRD9 degradation by co-treatment, BRD9-HiBiT HEK293 cells. On the set-up: host or cells: HEK293/BRD9-HiBiT knock-in; clone and BRD9-HiBiT/CAS9/FF clone. The conditions noted are these: (13) 1 µM, OICR8268 10 µM, BI-9564 10 µM. The format is cell-based. The protocol: Supplementary figure 4. Competition experiments with DBr-1 and DBr-1-N […]
a) BRD9-HiBiT signal detection of samples pretreated with either DMSO, 10µM OICR-8268, 1µM […]
Data represents average ± standard deviation from n=3 replicates. DC50 values and […]
maximal observed degradation are shown below. […]
b) Cell titer Glow assay of BRD9 HiBiT cells. Cells pretreated with either DMSO, 10µM OICR-8268, […]
Data represents average ± standard deviation from n=3 replicates.
Source data are provided as a Source Data file

Where [8] appears, read: compound alone, spread in brackets, read-out: TR-FRET Q. IC50.

BTK, sequence (Q06187 2-659 limits assumed): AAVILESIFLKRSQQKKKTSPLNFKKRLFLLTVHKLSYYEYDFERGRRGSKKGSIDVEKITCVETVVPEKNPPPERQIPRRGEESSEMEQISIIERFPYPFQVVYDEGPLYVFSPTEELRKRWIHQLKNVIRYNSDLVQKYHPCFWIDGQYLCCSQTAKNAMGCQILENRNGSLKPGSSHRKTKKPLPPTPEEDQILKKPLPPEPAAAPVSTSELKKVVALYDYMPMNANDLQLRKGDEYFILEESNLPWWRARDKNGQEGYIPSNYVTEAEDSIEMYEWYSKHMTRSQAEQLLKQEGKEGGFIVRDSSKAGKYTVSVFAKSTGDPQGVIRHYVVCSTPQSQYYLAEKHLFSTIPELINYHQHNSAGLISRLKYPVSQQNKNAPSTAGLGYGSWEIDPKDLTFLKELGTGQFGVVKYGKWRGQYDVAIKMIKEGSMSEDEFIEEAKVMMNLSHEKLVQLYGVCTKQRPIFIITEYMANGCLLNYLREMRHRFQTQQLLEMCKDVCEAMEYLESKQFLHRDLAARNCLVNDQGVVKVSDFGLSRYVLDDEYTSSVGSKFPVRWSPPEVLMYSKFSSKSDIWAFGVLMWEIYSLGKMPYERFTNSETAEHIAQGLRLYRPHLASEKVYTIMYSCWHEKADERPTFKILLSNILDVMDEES

On to `Cc1c(NC(=O)N2CC(O)(CC(C)(C)C)C2)cc(F)cc1-c1ncnc2[nH]c(-c3cnn(CC(=O)N4CCC5(CCNCC5)CC4)c3)cc12` [compound 19], for which, in series [1], the “max. BTK degradation (%)” value was determined as 0% and the DC50 was above 25000 nM. The GI50 at 24 h in series [2] (read-out: GI50) was above 25000 nM. Also, the “Max dose w/ Gating Viability >25%” value in series [3] was 25.

With `COc1cc(-c2cn(C)c(=O)c3cnccc23)c(OC)cc1CN1CCC(OCCCCCC(=O)N2CCN(c3ccc4c(NCCN(C)C)nc(C5(c6ccc(Cl)cc6)CCCCC5)nc4c3)CC2)CC1` [DBr-1-N], the “relative reduction in affinity compared to DBr-1, TR-FRET” value in series [4] is on record as 41 fold. Besides, the IC50 in series [4] (read-out: IC50 in TR-FRET assays (response to reviewers)) stood at 812 nM. For the same compound, the “relative reduction in affinity compared to DBr-1, SPR” value in series [5] is 27 fold.

`C#CCOCC(=O)N1CCN(c2ccc3c(NCCN)nc(C4(c5ccc(Cl)cc5)CCCCC4)nc3c2)CC1` [compound 16]: the IC50 in series [4] (setting [8]) was 10 nM. Besides, in series [5], the dissociation constant (Kd) came out at 50 nM.

On to `COc1cc(-c2cn(C)c(=O)c3cnccc23)c(OC)cc1CN(C)CC(=O)NCCOCCOCCNc1cccc2c1C(=O)N(C1CCC(=O)NC1=O)C2=O` (centres unmarked) [dBRD9], for which the DC50 in series [6] is above 10000 nM.

In the case of `Cc1c(NC(=O)c2ccc(C(C)(C)O)cc2F)cc(F)cc1-c1ncnc2[nH]c(-c3ccc(CN4CCC5(CCNCC5)CC4)cc3)cc12` [compound 18, reference compound], the DC50 in series [1] was determined as 7890 nM. The GI50 at 24 h in series [2] (read-out: Abs GI50) is 9540 nM; in series [2] (read-out: GI50) it was 7560 nM. Moreover, the “Max dose w/ Gating Viability >25%” value in series [3] is 25.

As to `CC(=O)NCCOCCOCCOCCOCCOCCOCCC(=O)N1CCN(c2ccc3c(NCCN)nc(C4(c5ccc(Cl)cc5)CCCC4)nc3c2)CC1` [compound 15], in series [4] (setting [8]), the half-maximal inhibitory concentration (IC50) amounted to 20 nM. In series [5], the equilibrium dissociation constant (Kd) amounted to 20 nM.

For the compound `NC(=O)C[C@H](NC(=O)c1c[nH]nc1-c1ccc(Cl)cc1F)c1ccc(F)c(Cl)c1` [OICR-8268], in series [7], the “effect of co-treatment on DBr-1 mediated BRD9 degradation” value is listed as “did not affect the degradation efficacy of DBr-1”.

For orientation: GI50 means the concentration that inhibits growth by half. As a reminder, the IC50 is the concentration that inhibits the measured activity by half. As usually defined, the Kd is the constant that tells how readily two partners part at equilibrium.
